What is called MIC is the lowest concentration found to suppress growth. A lower MIC goes with inhibition by little substance.

Values after ≈ are worked out from the molar mass of the structure shown. Values joined by “and” are separate entries in the source; they are usually repeats but may differ in a detail not shown here. Equal values may be shown once.

Test in all cases: ≥ marks a high value that may be exact or a test limit, other limits are often not marked, values filed in µg/mL are converted to µM
Experiment [1] deals with Escherichia coli ATCC 25922.
For experiment [2], the system named is Staphylococcus aureus ATCC 25923.
The subject of experiment [3] is Pseudomonas aeruginosa ATCC 27853.
Experiment [4] concerns Staphylococcus aureus ATCC 29213.

`CC[C@H](C)[C@H](NC(=O)CNC(=O)[C@H](CCSC)NC(=O)[C@H](CCCCN)NC(=O)[C@H](C)NC(=O)[C@H](CC(C)C)NC(=O)[C@H](CCCCN)NC(=O)[C@H](CCC(=O)O)NC(=O)[C@H](CC(C)C)NC(=O)CNC(=O)[C@H](CCCN=C(N)N)NC(=O)[C@H](CC(C)C)NC(=O)[C@@H](NC(=O)[C@H](CO)NC(=O)[C@H](CC(C)C)NC(=O)[C@H](C)N)[C@@H](C)CC)C(=O)N[C@@H](C)C(=O)N[C@@H](CC(C)C)C(=O)N[C@H](C(=O)N[C@@H](CC(N)=O)C(=O)N[C@H]1CSSC[C@@H](C(=O)O)NC(=O)[C@H](CCCCN)NC(=O)[C@H](CCCCN)NC(=O)[C@H]([C@@H](C)O)NC(=O)[C@H](C)NC(=O)[C@H](CCCCN)NC1=O)[C@@H](C)O` [ALSILRGLEKLAKMGIALTNCKATKKC]: in experiment [1], the MIC is 28 µM (≈ 80.5 µg/mL). `C[C@H](NC(=O)[C@H](Cc1ccccc1)NC(=O)[C@H](CCCCN)NC(=O)[C@H](CCCCN)NC(=O)[C@H](C)NC(=O)[C@@H](N)Cc1ccccc1)C(=O)N[C@@H](CCCCN)C(=O)N[C@@H](CCCCN)C(=O)N[C@@H](Cc1ccccc1)C(=O)N[C@@H](CCCCN)C(N)=O` [FAKKFAKKFK]: the MIC in experiment [2], in experiment [3] and in experiment [1] was 193 µM (≈ 240 µg/mL) each time. Take `CC[C@H](C)[C@H](NC(=O)[C@@H](NC(=O)[C@@H]1CCCN1C(=O)CNC(=O)[C@@H](NC(=O)[C@@H](N)Cc1ccccc1)[C@@H](C)CC)[C@@H](C)CC)C(=O)N[C@@H](CO)C(=O)N[C@@H](C)C(=O)N[C@@H](CC(C)C)C(=O)N[C@@H](C)C(=O)N[C@@H](CO)C(=O)N[C@@H](CC(C)C)C(=O)N[C@@H](Cc1ccccc1)C(=O)NCC(N)=O` [FIGPIISALASLFG]: the MIC in experiment [2] and in experiment [1] was greater than 60 µM in each case. In the case of `CC(C)[C@H](NC(=O)[C@@H]1CCCN1C(=O)[C@@H](N)Cc1ccccc1)C(=O)N[C@H](C(=O)N[C@@H](Cc1c[nH]c2ccccc12)C(=O)N[C@@H](CCCCN)C(=O)N[C@@H](Cc1c[nH]c2ccccc12)C(=O)N[C@@H](Cc1c[nH]c2ccccc12)C(=O)N[C@@H](CCCCN)C(=O)N[C@@H](Cc1c[nH]c2ccccc12)C(=O)N[C@@H](Cc1c[nH]c2ccccc12)C(=O)N[C@@H](CCCCN)C(=O)NCC(N)=O)[C@@H](C)O` [FPVTWKWWKWWKG], the MIC was 20 µM (≈ 36.7 µg/mL) in experiment [2]; 5.3 µM and 8 µM in experiment [1]. Compound `CC[C@H](C)[C@H](NC(=O)[C@@H](NC(=O)[C@@H](NC(=O)CNC(=O)[C@H](C)NC(=O)[C@@H](NC(=O)[C@H](CC(N)=O)NC(=O)[C@@H](NC(=O)[C@H](C)NC(=O)[C@H](CC(C)C)NC(=O)[C@H](CC(N)=O)NC(=O)[C@H](CCCCN)NC(=O)[C@@H](NC(=O)[C@@H](NC(=O)[C@H](CO)NC(=O)[C@H](Cc1ccccc1)NC(=O)[C@H](Cc1ccccc1)NC(=O)CN)[C@@H](C)O)C(C)C)[C@@H](C)O)C(C)C)[C@@H](C)O)C(C)C)C(=O)N[C@@H](CC(=O)O)C(=O)N[C@H](C(=O)N[C@@H](CC(C)C)C(=O)N[C@@H](CCCCN)C(=O)N[C@H]1CSSC[C@@H](C(=O)N[C@@H](CCCN=C(N)N)C(=O)N[C@@H](CO)C(=O)O)NC(=O)CNC(=O)CNC(=O)[C@H]([C@@H](C)O)NC(=O)[C@H](C(C)C)NC(=O)[C@H](CCCCN)NC1=O)[C@@H](C)O` [GFFSTVKNLATNVAGTVIDTLKCKVTGGCRS] came in with an MIC in experiment [1] of 78 µM (≈ 249 µg/mL). In experiment [1], `CC[C@H](C)[C@H](NC(=O)CNC(=O)[C@H](CC(N)=O)NC(=O)[C@@H](NC(=O)[C@@H](NC(=O)CNC(=O)[C@@H](NC(=O)[C@H](CCCCN)NC(=O)[C@@H](NC(=O)CNC(=O)[C@H](CCCCN)NC(=O)CNC(=O)[C@@H](NC(=O)[C@@H](NC(=O)[C@H](CCCCN)NC(=O)[C@@H]1CCCN1C(=O)[C@H](Cc1ccccc1)NC(=O)[C@@H](NC(=O)CN)[C@@H](C)CC)[C@@H](C)CC)[C@@H](C)CC)[C@@H](C)CC)[C@@H](C)O)[C@@H](C)CC)C(C)C)C(=O)N[C@@H](CCCCN)C(=O)N[C@@H](CO)C(=O)N[C@@H](CC(C)C)C(=O)N[C@H](C(=O)N[C@@H](CCCCN)C(=O)NCC(=O)N[C@H](C(=O)NCC(=O)N[C@@H](CCSC)C(=O)N[C@@H](CCCCN)C(=O)N[C@H](C(=O)N[C@@H](Cc1ccccc1)C(=O)N[C@@H](CCCCN)C(=O)N[C@@H](C)C(=O)NCC(=O)N[C@@H](CC(C)C)C(=O)N[C@@H](CO)C(=O)N[C@@H](CC(N)=O)C(=O)N[C@H](C(=O)NCC(=O)N[C@@H](CC(N)=O)C(=O)N[C@H](C(=O)NCC(=O)N[C@H]1CSSC[C@@H](C(=O)O)NC(=O)[C@H](CCC(=O)O)NC(=O)[C@H](CC(=O)O)NC(=O)[C@H](CCC(=O)O)NC(=O)[C@H](CC(N)=O)NC1=O)[C@@H](C)O)[C@@H](C)CC)C(C)C)C(C)C)C(C)C` [GIFPKIIGKGIKTGIVNGIKSLVKGVGMKVFKAGLSNIGNTGCNEDEC] came in with an MIC of 1 µM (≈ 4.9 µg/mL). In turn, `CC[C@H](C)[C@H](NC(=O)CN)C(=O)NCC(=O)N[C@@H](CCCCN)C(=O)N[C@@H](CC(C)C)C(=O)N[C@@H](Cc1ccccc1)C(=O)N[C@@H](CC(C)C)C(=O)N[C@@H](Cc1cnc[nH]1)C(=O)N[C@@H](C)C(=O)N[C@@H](C)C(=O)N[C@@H](CCCCN)C(=O)N[C@@H](CCCCN)C(=O)N[C@@H](Cc1ccccc1)C(=O)N[C@@H](C)C(=O)N[C@@H](CCCCN)C(=O)N[C@@H](C)C(=O)N[C@@H](Cc1ccccc1)C(=O)N[C@H](C(=O)N[C@@H](C)C(=O)N[C@@H](CCC(=O)O)C(=O)N[C@@H](CCCCN)C(=O)N[C@@H](CCSC)C(=O)N[C@@H](CC(N)=O)C(=O)N[C@@H](CO)C(=O)O)C(C)C` [GIGKLFLHAAKKFAKAFVAEKMNS] came in with an MIC in experiment [4] of 38.4 µM (≈ 100 µg/mL). As for `CC[C@H](C)[C@H](NC(=O)CNC(=O)[C@H](CCCCN)NC(=O)[C@@H](NC(=O)[C@H](CC(C)C)NC(=O)[C@H](CO)NC(=O)CNC(=O)[C@H](CC(C)C)NC(=O)CNC(=O)[C@H](C)NC(=O)[C@H](CCCCN)NC(=O)[C@H](Cc1ccccc1)NC(=O)[C@@H](NC(=O)[C@H](CC(=O)O)NC(=O)[C@H](CCCCN)NC(=O)[C@H](CC(C)C)NC(=O)CN)[C@@H](C)CC)C(C)C)C(=O)N[C@@H](C)C(=O)N[C@@H](C)C(=O)N[C@@H](Cc1cnc[nH]1)C(=O)N[C@H](C(=O)N[C@@H](C)C(=O)N[C@@H](CC(N)=O)C(N)=O)C(C)C` [GLKDIFKAGLGSLVKGIAAHVAN], the figures for the MIC in experiment [2] and in experiment [1] were 200 µM (≈ 456 µg/mL) and 25 µM (≈ 57 µg/mL), respectively. For `CC(C)C[C@H](NC(=O)CN)C(=O)N[C@@H](CC(C)C)C(=O)N[C@@H](CC(=O)O)C(=O)N[C@@H](Cc1ccccc1)C(=O)N[C@@H](CC(C)C)C(=O)N[C@@H](CCCCN)C(=O)N[C@@H](C)C(=O)N[C@@H](C)C(=O)NCC(=O)N[C@@H](CCCCN)C(=O)NCC(=O)N[C@@H](CC(C)C)C(=O)N[C@H](C(=O)N[C@@H](CO)C(=O)N[C@@H](CC(N)=O)C(=O)N[C@@H](CC(C)C)C(=O)N[C@@H](CC(C)C)C(=O)N[C@@H](CCC(=O)O)C(=O)N[C@@H](CCCCN)C(N)=O)C(C)C` [GLLDFLKAAGKGLVSNLLEK], in that order: 15 µM (≈ 31.3 µg/mL) and 15 µM (≈ 31.3 µg/mL). Consider `CC[C@H](C)[C@H](NC(=O)[C@H](CCCN=C(N)N)NC(=O)[C@H](CCCCN)NC(=O)[C@H](CC(C)C)NC(=O)[C@@H](NC(=O)CN)C(C)C)C(=O)N[C@@H](CCCCN)C(=O)N[C@H](C(=O)N[C@@H](CC(C)C)C(=O)N[C@H](C(N)=O)C(C)C)[C@@H](C)O` [GVLKRIKTLV], for which the MIC in experiment [1] was greater than 200 µM.

As for `CC(C)C[C@H](NC(=O)[C@H](C)NC(=O)[C@@H](N)CCCCN)C(=O)N[C@@H](Cc1c[nH]c2ccccc12)C(=O)N[C@@H](CCCCN)C(=O)N[C@H](C(=O)N[C@@H](CC(C)C)C(=O)N[C@@H](CC(C)C)C(=O)N[C@@H](CCCCN)C(=O)N[C@@H](CCCCN)C(=O)N[C@H](C(=O)N[C@@H](CC(C)C)C(=O)N[C@@H](CCCCN)C(=O)N[C@@H](C)C(N)=O)C(C)C)[C@@H](C)O` [KALWKTLLKKVLKA], the MIC was 25 µM (≈ 41 µg/mL) in experiment [2] and 3 µM (≈ 4.92 µg/mL) in experiment [1]. With `CSCC[C@H](NC(=O)[C@H](CCCN=C(N)N)NC(=O)[C@H](Cc1c[nH]c2ccccc12)NC(=O)[C@H](C)NC(=O)[C@H](Cc1c[nH]c2ccccc12)NC(=O)[C@H](CCCN=C(N)N)NC(=O)[C@H](Cc1ccc(O)cc1)NC(=O)[C@H](Cc1c[nH]c2ccccc12)NC(=O)[C@H](CCCN=C(N)N)NC(=O)[C@@H](N)CCCN=C(N)N)C(=O)N[C@@H](CCCN=C(N)N)C(N)=O` [RRWYRWAWRMR], the MIC in experiment [2] is 2.9 µM (≈ 5 µg/mL); in experiment [3], 4.35 µM (≈ 7.5 µg/mL); in experiment [1], 5.8 µM (≈ 9.99 µg/mL). For `CC[C@H](C)[C@H](NC(=O)[C@H](Cc1c[nH]c2ccccc12)NC(=O)[C@H](CCCN=C(N)N)NC(=O)[C@H](Cc1c[nH]c2ccccc12)NC(=O)[C@H](Cc1c[nH]c2ccccc12)NC(=O)[C@H](CCCN=C(N)N)NC(=O)[C@H](CCCN=C(N)N)NC(=O)[C@H](Cc1c[nH]c2ccccc12)NC(=O)[C@@H](N)CCCN=C(N)N)C(N)=O` [RWRRWWRWI], the MIC in experiment [1] stood at 10.7 µM (≈ 16 µg/mL).

As to `CC(C)C[C@H](NC(=O)[C@H](CCCCN)NC(=O)CNC(=O)[C@@H](N)CO)C(=O)N[C@@H](Cc1ccc(O)cc1)C(=O)N[C@@H](Cc1ccc(O)cc1)C(=O)N[C@@H](CCCN=C(N)N)C(=O)N[C@@H](CCCN=C(N)N)C(=O)N[C@@H](CCCCN)C(=O)N[C@@H](CCCCN)C(N)=O` [SGKLYYRRKK], the MIC in experiment [2] and in experiment [3] was greater than 100 µM each time. As for `CC(C)C[C@H](NC(=O)[C@H](CC(C)C)NC(=O)[C@H](CC(N)=O)NC(=O)[C@H](CCCCN)NC(=O)[C@H](CC(C)C)NC(=O)[C@H](CC(=O)O)NC(=O)[C@@H](N)C(C)C)C(=O)N[C@@H](CCCCN)C(=O)O` [VDLKNLLK], the MIC in experiment [3] was 32 µM (≈ 30.1 µg/mL). As to `C[C@H](NC(=O)[C@H](Cc1c[nH]c2ccccc12)NC(=O)[C@H](CCCN=C(N)N)NC(=O)[C@H](Cc1c[nH]c2ccccc12)NC(=O)[C@H](C)NC(=O)[C@H](CCCCN)NC(=O)[C@@H](N)Cc1ccc(O)cc1)C(=O)N[C@@H](Cc1c[nH]c2ccccc12)C(=O)N[C@@H](CCCN=C(N)N)C(=O)N[C@@H](Cc1c[nH]c2ccccc12)C(=O)N[C@@H](CCCCN)C(N)=O` [YKAWRWAWRWK], the results for the MIC in experiment [2], in experiment [3] and in experiment [1] were 3.05 µM (≈ 5 µg/mL), 12.2 µM (≈ 20 µg/mL) and 4.58 µM (≈ 7.5 µg/mL), respectively.
